# What was measured:
# [1] = test system: Staphylococcus aureus-SMITH (GC 4543); assay: Acute lethal infection in mice (ED50); assay type: in vivo; conditions: female CD-1 mice, intraperitoneal challenge, intravenous dose 30 min. after infection, 7 day survival ratios
# Description: The therapeutic effects of glycopeptide antibiotics of Formula I are determined against acute lethal infections with S. aureus (strain Smith), a penicillin resistant strain of S. pneumoniae (strain GC 1894), and a vancomycin resistant strain of E. fecalis (strain GC 6189 and GC 2246). Female mice, CD-1 (Charles River Laboratories), 20 +1-2 gm, are challenged by intraperitoneal injection of sufficient bacteria (suspended in Trypticase Soy Broth or hog gastric mucin) to kill non-treated controls within 24-48 hr. Antibacterial agents, contained in 0.2 mL of saline or 5% dextrose solution, are administered intravenously 30 min. after infection. Five mice are treated at each dose level. The 7 day survival ratios from 3 separate tests are pooled for calculation of median effective dose (ED50).
# Staphylococcus sp. = assay: In vitro antibacterial evaluation: minimum inhibitory concentration (MIC), broth dilution method; assay type: cell-based; conditions: for MIC Staphylococcus aureus (ATCC 29213): strain ATCC 29213; for MIC Staphylococcus aureus (GC 1131): strain GC 1131; for MIC Staphylococcus aureus (GC 3051): strain GC 3051; for MIC Staphylococcus aureus (GC 3053): strain GC 3053; for MIC Staphylococcus aureus (GC 4541): strain GC 4541; for MIC Staphylococcus aureus (GC 4542): strain GC 4542; for MIC Staphylococcus aureus-SMITH (GC 4543): strain GC 4543; for MIC Staphylococcus aureus (GC 4544): strain GC 4544; for MIC Staphylococcus aureus (GC 4545): strain GC 4545; for MIC Staphylococcus haemolyticus (GC 4546): strain GC 4546; for MIC Coagulase Negative Staphylococcus (GC 4547): strain GC 4547; for MIC Coagulase Negative Staphylococcus (GC 4548): strain GC 4548; for MIC Coagulase Negative Staphylococcus (GC 4549): strain GC 4549; for MIC Coagulase Negative Staphylococcus (GC 4551): strain GC 4551; for MIC Coagulase Negative Staphylococcus (GC 6257): strain GC 6257
# Method in brief: (§1)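 An MIC is reported for each organism as the least concentration giving inhibition, using broth dilution over 64-0.06 μg/mL with a 5×10^5 CFU/mL inoculum.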
# Enterococcus sp. = assay: as above; assay type: cell-based; conditions: broth dilution, 5×10^5 CFU/mL, 18 hours at 35° C.
# Method in brief: as §1
# Streptococcus sp. = assay: as above; assay type: cell-based; conditions: broth dilution, 5×10^5 CFU/mL, 18 hours at 35° C.
# Method in brief: as §1
# Escherichia coli = assay: as above; assay type: cell-based; conditions: 5×10^5 CFU/mL, 18 hours at 35° C.
# Method in brief: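 MIC read as lowest drug level preventing visible growth. Organisms at 5×10^5 CFU/mL were exposed to a 64-0.06 μg/mL dilution series in Muller-Hinton II […] following NCCLS broth dilution standard M7-A2.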
# [2] = broth dilution, 18 hours at 35° C.
smiles,measurement,setting,value
CC(c1ccccc1)C1NC(=O)CNC(=O)C(CO)NC(=O)C(C(O)C2CNC(=N)N2C2OC(CO)C(O)C(O)C2O)NC(=O)C(C(O)C2CNC(=N)N2)NC(=O)C(Cc2ccc(OC3OC(CO)C(OC4OC5COC(CC6CCN(C(=O)OCc7ccccc7)CC6)OC5C(O)C4O)C(O)C3O)cc2)NC1=O (stereo not drawn) [Example 113],"median effective dose (ED50), Staphylococcus aureus-SMITH (GC 4543)",[1],0.26 mg/kg
same,MIC Staphylococcus aureus (ATCC 29213),Staphylococcus sp.,1 µg/mL
same,MIC Staphylococcus aureus (ATCC 29213),Staphylococcus sp.; [2],1 µg/mL
same,MIC Staphylococcus aureus (GC 1131),Staphylococcus sp.,2 µg/mL
same,MIC Staphylococcus aureus (GC 1131),Staphylococcus sp.; [2],2 µg/mL
same,MIC Staphylococcus aureus (GC 3051),Staphylococcus sp.,1 µg/mL
same,MIC Staphylococcus aureus (GC 3051),Staphylococcus sp.; [2],1 µg/mL
same,MIC Staphylococcus aureus (GC 3053),Staphylococcus sp.,1 µg/mL
same,MIC Staphylococcus aureus (GC 3053),Staphylococcus sp.; [2],1 µg/mL
same,MIC Staphylococcus aureus (GC 4541),Staphylococcus sp.,1 µg/mL
same,MIC Staphylococcus aureus (GC 4541),Staphylococcus sp.; [2],1 µg/mL
same,MIC Staphylococcus aureus (GC 4542),Staphylococcus sp.,1 µg/mL
same,MIC Staphylococcus aureus (GC 4542),Staphylococcus sp.; [2],1 µg/mL
same,MIC Staphylococcus aureus-SMITH (GC 4543),Staphylococcus sp.; 18 hours at 35° C.,1 µg/mL
same,MIC Staphylococcus aureus-SMITH (GC 4543),Staphylococcus sp.; [2],1 µg/mL
same,MIC Staphylococcus aureus (GC 4544),Staphylococcus sp.,2 µg/mL
same,MIC Staphylococcus aureus (GC 4544),Staphylococcus sp.; [2],2 µg/mL
same,MIC Staphylococcus aureus (GC 4545),Staphylococcus sp.,1 µg/mL
same,MIC Staphylococcus aureus (GC 4545),Staphylococcus sp.; [2],1 µg/mL
same,MIC Staphylococcus haemolyticus (GC 4546),Staphylococcus sp.,1 µg/mL
same,MIC Staphylococcus haemolyticus (GC 4546),Staphylococcus sp.; [2],1 µg/mL
same,MIC Coagulase Negative Staphylococcus (GC 4547),Staphylococcus sp.,1 µg/mL
same,MIC Coagulase Negative Staphylococcus (GC 4547),Staphylococcus sp.; [2],1 µg/mL
same,MIC Coagulase Negative Staphylococcus (GC 4548),Staphylococcus sp.,0.5 µg/mL
same,MIC Coagulase Negative Staphylococcus (GC 4548),Staphylococcus sp.; [2],0.5 µg/mL
same,MIC Coagulase Negative Staphylococcus (GC 4549),Staphylococcus sp.,1 µg/mL
same,MIC Coagulase Negative Staphylococcus (GC 4549),Staphylococcus sp.; [2],1 µg/mL
same,MIC Coagulase Negative Staphylococcus (GC 4551),Staphylococcus sp.,1 µg/mL
same,MIC Coagulase Negative Staphylococcus (GC 4551),Staphylococcus sp.; [2],1 µg/mL
same,MIC Coagulase Negative Staphylococcus (GC 6257),Staphylococcus sp.,0.5 µg/mL
same,MIC Coagulase Negative Staphylococcus (GC 6257),Staphylococcus sp.; [2],0.5 µg/mL
same,MIC Enterococccus avium (GC 4558),Enterococcus sp.,2 µg/mL
same,MIC Enterococccus faecalis (ATCC 29212),Enterococcus sp.,2 µg/mL
same,MIC Enterococccus faecalis (GC 2691),Enterococcus sp.,4 µg/mL
same,MIC Enterococccus faecalis (GC 3059),Enterococcus sp.,2 µg/mL
same,MIC Enterococccus faecalis (GC 4552),Enterococcus sp.,2 µg/mL
same,MIC Enterococccus faecalis (GC 4553),Enterococcus sp.,2 µg/mL
same,MIC Enterococccus faecalis (GC 4554),Enterococcus sp.,2 µg/mL
same,MIC Enterococccus faecalis (GC 6189),Enterococcus sp.,2 µg/mL
same,MIC Enterococccus faecium (GC 2243),Enterococcus sp.,2 µg/mL
same,MIC Enterococccus faecium (GC 4556),Enterococcus sp.,2 µg/mL
same,MIC Enterococccus faecium (GC 4557),Enterococcus sp.,2 µg/mL
same,MIC Enterococcus faecalis (GC 2242),Enterococcus sp.,4 µg/mL
same,MIC Streptococcus agalactiae (GC 4564),Streptococcus sp.,0.12 µg/mL
same,MIC Streptococcus pneumoniae (GC 1894),Streptococcus sp.,<0.06 µg/mL
same,MIC Streptococcus pneumoniae (GC 4565),Streptococcus sp.,<0.06 µg/mL
same,MIC Streptococcus pneumonine (ATCC 6301),Streptococcus sp.,<0.06 µg/mL
same,MIC Streptococcus pyogenes (GC 4563),Streptococcus sp.,<0.06 µg/mL
same,MIC Escherichia coli (ATCC 25922),Escherichia coli,32 µg/mL
same,MIC Escherichia coli (GC 4559),Escherichia coli,32 µg/mL
same,MIC Escherichia coli (GC 4560),Escherichia coli,1 µg/mL
